In ChEMBL document CHEMBL1152019, “A series of conformationally and sterically constrained analogs of N-phenyl-N-aralkylurea ACAT inhibitors” (Bioorg Med Chem Lett, 1995):
Calls of active or inactive are those of the source. The calls are words filed in the database; no cut-off is given here.

Legend:
Rattus norvegicus [1] = experiment: In vivo percent change of total cholesterol compared to control at a dose 30 mg/Kg in rats fed with cholic acid (0.5%), cholesterol (1.5%) and peanut oil (5.5%).; type: functional
O-acyltransferase = O-acyltransferase (Oryctolagus cuniculus, UniProt G1SFD9); experiment: In vitro inhibitory activity against ACAT was determined in rabbit intestinal microsome from cholesterol-fed animals; type: microsomes, Intestine
Sequence of O-acyltransferase (G1SFD9 1-524): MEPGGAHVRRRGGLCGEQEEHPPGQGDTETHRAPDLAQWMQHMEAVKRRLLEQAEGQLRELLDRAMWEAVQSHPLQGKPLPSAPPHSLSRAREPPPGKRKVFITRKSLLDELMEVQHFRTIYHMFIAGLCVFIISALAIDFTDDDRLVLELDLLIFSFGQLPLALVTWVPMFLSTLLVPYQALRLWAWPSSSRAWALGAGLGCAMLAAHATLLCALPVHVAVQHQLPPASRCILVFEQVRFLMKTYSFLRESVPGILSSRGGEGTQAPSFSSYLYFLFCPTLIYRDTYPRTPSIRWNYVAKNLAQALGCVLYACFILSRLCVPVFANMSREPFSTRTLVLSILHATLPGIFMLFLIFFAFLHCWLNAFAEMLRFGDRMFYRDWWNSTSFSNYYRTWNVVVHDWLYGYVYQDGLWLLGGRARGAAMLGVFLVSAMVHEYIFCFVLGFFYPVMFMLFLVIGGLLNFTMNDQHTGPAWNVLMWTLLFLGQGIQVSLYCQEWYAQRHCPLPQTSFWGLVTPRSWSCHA

Rattus norvegicus [2] = experiment: Compound was evaluated in vivo for percent change of total cholesterol compared to control at a dose 30 mg/Kg in rats fed with cholic acid (0.5%), cholesterol (1.5%) and peanut oil (5.5%); No change; type: functional, organism-based

SMILES | Change (Rattus norvegicus [1]) [%] | IC50 (O-acyltransferase) [nM] | Change (Rattus norvegicus [2])
CC(C)c1cccc(C(C)C)c1NC(=O)NOCc1cccc2ccccc12 | -32 | – | –
CC(C)c1cccc(C(C)C)c1NC(=O)NCC1(O)CCc2ccccc21 (stereo unspecified) | – | 810 | inactive
CC(C)c1cccc(C(C)C)c1NC(=O)NC1CCc2ccccc21 (stereo unspecified) | – | 910 | inactive
CC(C)c1cccc(C(C)C)c1NC(=O)NCCc1ccc2ccccc2c1 | -54 | – | –
CC(C)c1cccc(C(C)C)c1NC(=O)NCC1(c2ccc(N(C)C)cc2)CCCC1 [NEVANIMIBE] | -76 | – | –
CC(C)c1cccc(C(C)C)c1NC(=O)NCC(c1ccccc1)c1ccccc1 | -73 | – | –
CC(C)c1cccc(C(C)C)c1NC(=O)NC1CCc2ccccc2C1 (stereo unspecified) | -26 | 63 | –
CC(C)c1cccc(C(C)C)c1NC(=O)NC1Cc2ccccc2C1 | -8 | 96 | –
CC(C)c1cccc(C(C)C)c1NC(=O)NC1COc2ccccc2C1 (stereo unspecified) | -20 | 110 | –
CC(C)c1cccc(C(C)C)c1NC(=O)NOC(c1ccccc1)c1ccccc1 | -67 | – | –
CC(C)c1cccc(C(C)C)c1NC(=O)NC1CCc2ccccc2C12CCCC2 (stereo unspecified) | -49 | 31 | –
CC(C)c1cccc(C(C)C)c1NC(=O)NCC1CCc2ccccc21 (stereo unspecified) | -49 | 27 | –
CC(C)c1cccc(C(C)C)c1NC(=O)NCC1c2ccccc2-c2ccccc21 | -41 | – | –
CC(C)c1cccc(C(C)C)c1NC(=O)NCC1(O)CCCc2ccccc21 (stereo unspecified) | – | 350 | inactive
CC(C)c1cccc(C(C)C)c1NC(=O)NOC(c1ccccc1)(c1ccccc1)c1ccccc1 | -30 | – | –
CC(C)c1cccc(C(C)C)c1NC(=O)NCc1cccc2ccccc12 | -53 | 34 | –
CC(C)c1cccc(C(C)C)c1NC(=O)NCC1(c2ccccc2)CCCC1 | -70 | – | –
CC(C)c1cccc(C(C)C)c1NC(=O)NC1CCCc2ccccc21 (stereo unspecified) | – | – | inactive
COc1cccc2c1CCC(NC(=O)Nc1c(C(C)C)cccc1C(C)C)C2 (stereo unspecified) | -39 | 17 | –
CC(C)c1cccc(C(C)C)c1NC(=O)NCC1CCCc2ccccc21 (stereo unspecified) | -47 | 36 | –
CC(C)c1cccc(C(C)C)c1NC(=O)NCC1=CCCc2ccccc21 | -33 | 29 | –
CC(C)c1cccc(C(C)C)c1NC(=O)NCC(c1ccccc1)(c1ccccc1)c1ccccc1 | -68 | 91 | –
CC(C)c1cccc(C(C)C)c1NC(=O)NCCc1cccc2ccccc12 | -32 | – | –
CC(C)c1cccc(C(C)C)c1NC(=O)NCCc1ccccc1 | -16 | – | –
CC(C)c1cccc(C(C)C)c1NC(=O)NCC1(c2ccccc2)Cc2ccccc2C1 | -67 | 27 | –
CC(C)c1cccc(C(C)C)c1NC(=O)NCC1c2ccccc2Oc2ccccc21 | -25 | 42 | –
